# Experimental data reported in article PMC8910560, “Screening of Novel Bioactive Peptides from Goat Casein: In Silico to In Vitro Validation” (International Journal of Molecular Sciences, 2022).
# Ends that are not written are not given here.
# System: not given
# Assay: not given
# Design: method as in Contreras et al. (2013) [21]
# Settings: after the digestion process; ref Contreras et al. (2013) [21]; cited from earlier work
Substance,antioxidant capacity,change of antioxidant activity
AYFYPEL [casein-derived peptide studied by Contreras et al. (2013)],4.160 ± 0.623 µmol TE µmol^−1 peptide,
RYLGY,,reduced
YQKFPQY [casein-derived peptide studied by Contreras et al. (2013)],,reduced

# Same assay, conditions: before digestion; ref Contreras et al. (2013) [21]; cited from earlier work
row,Substance,antioxidant capacity
1,AYFYPEL [casein-derived peptide studied by Contreras et al. (2013)],3.216 ± 0.114 µmol TE µmol^−1 peptide

# System: ACE
# Assay: not given
# Settings: antihypertensive oligopeptides encoded in human β-casein; cited from earlier work
row,Substance,IC50 (ACE)
1,LPQNILP [antihypertensive oligopeptide encoded in the human β-casein],36.5 µg/mL
2,NPPHQIYP [antihypertensive oligopeptide encoded in the human β-casein],35.7 µg/mL
3,PAVVLP,26.8 µg/mL
4,PHQIYP,22.6 µg/mL
5,TVYTKGRVMP [antihypertensive oligopeptide encoded in the human β-casein],43.7 µg/mL
6,VLPIP,16.7 µg/mL
7,VLPYP,21.1 µg/mL
8,VMP,10.0 µg/mL

# Same assay, conditions: antihypertensive oligopeptides encoded in various β-caseins; cited from earlier work
row,Substance,IC50 (ACE)
1,FAQTQSLVYP [antihypertensive oligopeptide encoded in various β-caseins],28.8 µg/mL
2,HPFAQTQQSLVYP [antihypertensive oligopeptide encoded in various β-caseins],36.1 µg/mL
3,SLVYP,23.7 µg/mL

# Same assay, conditions: whey-derived peptides; ref Tavares et al. (2011) [14]; cited from earlier work
row,Substance,IC50 (ACE)
1,DAQSAPLRVY,12.2 µg/mL
2,DKVGINYW,25.4 µg/mL
3,KGYGGVSLPEW,0.7 µg/mL

# Biological target: T1, angiotensin-I converting enzyme (ACE) (Oryctolagus cuniculus, UniProt P12822)
# T1 construct: purchased Sigma-Aldrich
# T1 sequence (P12822 34-1310): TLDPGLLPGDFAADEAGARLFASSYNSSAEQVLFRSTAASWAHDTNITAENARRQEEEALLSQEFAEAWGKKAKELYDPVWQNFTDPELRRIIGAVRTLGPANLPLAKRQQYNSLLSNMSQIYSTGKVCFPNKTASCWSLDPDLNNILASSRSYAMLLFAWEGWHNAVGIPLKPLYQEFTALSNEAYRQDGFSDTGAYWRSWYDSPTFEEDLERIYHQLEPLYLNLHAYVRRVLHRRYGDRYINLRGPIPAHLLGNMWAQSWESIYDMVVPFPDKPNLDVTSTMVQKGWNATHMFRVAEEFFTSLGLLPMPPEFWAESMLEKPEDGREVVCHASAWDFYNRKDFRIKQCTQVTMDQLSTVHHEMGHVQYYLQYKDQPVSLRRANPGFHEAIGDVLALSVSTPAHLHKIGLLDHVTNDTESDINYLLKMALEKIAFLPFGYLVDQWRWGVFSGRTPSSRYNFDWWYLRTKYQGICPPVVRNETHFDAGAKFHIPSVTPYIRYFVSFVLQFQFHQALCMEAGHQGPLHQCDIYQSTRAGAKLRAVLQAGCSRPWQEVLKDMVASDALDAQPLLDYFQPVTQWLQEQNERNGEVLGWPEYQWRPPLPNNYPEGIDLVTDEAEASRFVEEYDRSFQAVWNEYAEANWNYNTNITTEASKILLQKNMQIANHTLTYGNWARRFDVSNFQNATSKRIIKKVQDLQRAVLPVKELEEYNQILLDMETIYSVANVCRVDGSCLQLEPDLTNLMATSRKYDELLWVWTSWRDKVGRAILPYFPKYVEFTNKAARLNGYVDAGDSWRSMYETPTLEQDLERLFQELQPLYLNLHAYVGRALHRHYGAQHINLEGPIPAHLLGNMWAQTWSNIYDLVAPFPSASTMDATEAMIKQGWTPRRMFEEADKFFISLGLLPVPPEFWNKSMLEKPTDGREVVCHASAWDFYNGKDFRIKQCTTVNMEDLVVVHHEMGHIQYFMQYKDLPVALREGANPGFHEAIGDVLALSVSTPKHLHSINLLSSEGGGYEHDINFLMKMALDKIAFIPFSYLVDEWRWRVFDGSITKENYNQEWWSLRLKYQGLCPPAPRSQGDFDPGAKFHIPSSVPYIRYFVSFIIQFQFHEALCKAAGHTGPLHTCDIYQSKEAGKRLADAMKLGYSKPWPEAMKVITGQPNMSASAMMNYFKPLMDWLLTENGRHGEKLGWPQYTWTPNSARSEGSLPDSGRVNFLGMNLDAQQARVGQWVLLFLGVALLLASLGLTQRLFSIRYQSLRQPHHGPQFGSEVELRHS
# Assay: ACE inhibitory activity (iACE), fluorometric assay
# Format: biochemical
# Settings: Digested (simulated gastrointestinal digestion, 50 µg mL^−1 in intestinal compartment)
# Description: The ACE inhibitory activity was carried out using the fluorometric assay described by Coscueta, Brassesco, and Pintado (2021). The iACE of each sample (raw peptide and digested) was evaluated in duplicate and expressed as the concentration capable of inhibiting 50% of the enzymatic activity (IC50). To calculate the IC50 values, non-linear modeling was used, and the results were expressed as μg mL^−1 to inhibit 50% of the enzymatic activity.
# Simulated gastrointestinal digestion was performed according to the method described by Madureira et al. (2011). Briefly, mouth digestion was mimicked by introducing the peptide sequence (2.5 mg/mL) into 15 mL of a 1 mM CaCl2 solution of 100 U mL^−1 α-amylase, under constant stirring (200 rpm) for 2 min at 37 °C, simulating masticatory movements. A 1 M NaHCO3 solution was used to adjust the pH of artificial saliva to 6.9. Subsequently, a pepsin solution, 25 mg/mL, was added with a ratio of 0.05 mL/mL of a sample at pH 2.0 (simulated gastric solution, stomach) following incubation for 2 h, 37 °C at 130 rpm orbital agitation for the gastric phase. Finally, intestinal digestion and absorption were simulated by adjusting pH values to […] using a 1 M NaHCO3 solution and adding a solution of bile salts and pancreatin to the digest.
row,IC50,Substance
1,> 30.6 µM,QSLVYPFTGPIPNSL [QSLVYPFTGPIPNSL]
2,> 56.7 µM,SWMHQPP [SWMHQPP]
3,> 47.7 µM,YPYQGPIVL [YPYQGPIVL]

# Same assay, conditions: Raw peptide; mean ± SD
row,IC50,Substance
1,> 3680 µM,HQPPQPL [HQPPQPL]
2,> 3170 µM,MHQPPQPL [MHQPPQPL]
3,> 1840 µM,QSLVYPFTGPIPNSL [QSLVYPFTGPIPNSL]
4,253 µM,SWMHQPP [SWMHQPP]
5,1060 µM,YPYQGPIVL [YPYQGPIVL]
